Measured values from US9828393B2, “Silylalkyloxyaryl compounds and methods for treating cancer” (THE REGENTS OF THE UNIVERSITY OF COLORADO, a body corporate, priority 2013, dated 2017).
Where two headings read alike, the source gives them in different places.

Tests used:
Type in all cases: cell-based, human
[1] = test system: MOLT-4; experiment: NCI-60 cell line screen (SRB), MOLT-4
Description: (§1) Drug sensitivity data are provided as GI50s (concentrations required to inhibit growth by 50%). The first row of the text file identifies cell lines, separated by tabs. Subsequent rows contain compound number, compound name, and GI50 for each cell line, each separated by a tab. […] For a typical screening experiment, cells are inoculated into 96 well microtiter plates in 100 μL at plating densities ranging from 5,000 to 40,000 cells/well depending on the doubling time of individual cell lines. After cell inoculation, the microtiter plates are incubated at 37° C., 5% CO2, 95% air and 100% relative humidity for 24 h prior to addition of experimental drugs. After 24 h, two plates of each cell line are fixed in situ with TCA, to represent a measurement of the cell population for each cell line at the time of drug addition (Tz). Experimental drugs are solubilized in dimethyl sulfoxide at 400-fold the desired final maximum test concentration and stored frozen prior to use. At the time of drug addition, an aliquot of frozen concentrate is thawed and diluted to twice the desired final maximum test concentration with complete medium containing 50 μg/ml gentamicin. Additional four, 10-fold or one-half log serial dilutions are made to provide a total of five drug concentrations plus control. Aliquots of 100 μl of these different drug dilutions are added to the appropriate microtiter wells already containing 100 μl of medium, resulting in the required final drug concentrations. Following drug addition, the plates are incubated for an additional 48 h at 37° C., 5% CO2, 95% air, and 100% relative humidity. For adherent cells, the assay is terminated by the addition of cold TCA. Cells are fixed in situ by the gentle addition of 50 μl of cold 50% (w/v) TCA (final concentration, 10% TCA) and incubated for 60 minutes at 4° C. The supernatant is discarded, and the plates are washed five times with tap water and air dried. Sulforhodamine B (SRB) solution (100 μl) at 0.4% (w/v) in 1% acetic acid is added to each well, and plates are incubated for 10 minutes at room temperature. After staining, unbound dye is removed by washing five times with 1% acetic acid and the plates are air dried. Bound stain is subsequently solubilized with 10 mM trizma base, and the absorbance is read on an automated plate reader at a wavelength of 515 nm. For suspension cells, the methodology is the same except that the assay is terminated by fixing settled cells at the bottom of the wells by gently adding 50 μl of 80% TCA (final concentration, 16% TCA). Using the seven absorbance measurements [time zero, (Tz), control growth, (C), and test growth in the presence of drug at the five concentration levels (Ti)], the percentage growth is calculated at each of the drug concentrations levels. […]

[2] = test system: Leukemia cell lines; experiment: NCI-60 cell line screen, Leukemia panel average; conditions: read-out: GI50 Average
Description: as §1

[3] = test system: NCI-H522; experiment: NCI-60 cell line screen (SRB), NCI-H522
Description: as §1

[4] = test system: Non-Small Cell Lung Cancer cell lines; experiment: NCI-60 cell line screen, Non-Small Cell Lung Cancer panel average; conditions: read-out: GI50 Average
Description: as §1

[5] = test system: COLO 205; experiment: NCI-60 cell line screen (SRB), COLO 205
Description: as §1

[6] = test system: KM12; experiment: NCI-60 cell line screen (SRB), KM12
Description: as §1

[7] = test system: U-251; experiment: NCI-60 cell line screen (SRB), U-251
Description: as §1

[8] = test system: M14; experiment: NCI-60 cell line screen (SRB), M14
Description: as §1

[9] = test system: SK-MEL-2; experiment: NCI-60 cell line screen (SRB), SK-MEL-2
Description: as §1

[10] = test system: UACC-62; experiment: NCI-60 cell line screen (SRB), UACC-62
Description: as §1

[11] = test system: IGROV1; experiment: NCI-60 cell line screen (SRB), IGROV1
Description: as §1

[12] = test system: OVCAR-3; experiment: NCI-60 cell line screen (SRB), OVCAR-3
Description: as §1

[13] = test system: OVCAR-8; experiment: NCI-60 cell line screen (SRB), OVCAR-8
Description: as §1

[14] = test system: SK-OV-3; experiment: NCI-60 cell line screen (SRB), SK-OV-3
Description: as §1

[15] = test system: 786-0; experiment: NCI-60 cell line screen (SRB), 786-0
Description: as §1

[16] = test system: ACHN; experiment: NCI-60 cell line screen (SRB), ACHN
Description: as §1

[17] = test system: CAKI-1; experiment: NCI-60 cell line screen (SRB), CAKI-1
Description: as §1

[18] = test system: RXF 393; experiment: NCI-60 cell line screen (SRB), RXF 393
Description: as §1

[19] = test system: UO-31; experiment: NCI-60 cell line screen (SRB), UO-31
Description: as §1

[20] = test system: Renal Cancer cell lines; experiment: NCI-60 cell line screen, Renal Cancer panel average; conditions: read-out: GI50 Average
Description: as §1

[21] = test system: DU145; experiment: NCI-60 cell line screen (SRB), DU145
Description: as §1

[22] = test system: MDA-MB-231/ATCC; experiment: NCI-60 cell line screen (SRB), MDA-MB-231/ATCC
Description: as §1

[23] = test system: HS 578T; experiment: NCI-60 cell line screen (SRB), HS 578T
Description: as §1

[24] = test system: T-47D; experiment: NCI-60 cell line screen (SRB), T-47D
Description: as §1

## CCCC[Si](C)(C)COc1ccc(C(=O)N[C@@H](Cc2ccc(-c3ccccc3)cc2)C(=O)NC2CC(C)(C)NC(C)(C)C2)cc1 [GH1504, N^α-{4-[(butyldimethylsilyl)methoxy]-benzoyl}-N-(2,2,6,6-tetramethylpiperidin-4-yl)-(4-phenyl-L-phenylalaninamide)]
[1]; Homo sapiens, MOLT-4, 48 h
  GI50: 0.775 µM
[2]; Homo sapiens
  GI50: 1.17 µM
[3]; Homo sapiens, NCI-H522, 48 h
  GI50: 1.06 µM
[4]; Homo sapiens
  GI50: 1.02 µM
[5]; Homo sapiens, COLO 205, 48 h
  GI50: 0.215 µM
[6]; Homo sapiens, KM12, 48 h
  GI50: 0.376 µM
[7]; Homo sapiens, U-251, 48 h
  GI50: 0.238 µM
[8]; Homo sapiens, M14, 48 h
  GI50: 0.286 µM
[9]; Homo sapiens, SK-MEL-2, 48 h
  GI50: 0.944 µM
[10]; Homo sapiens, UACC-62, 48 h
  GI50: 1.15 µM
[11]; Homo sapiens, IGROV-1, 48 h
  GI50: 1.64 µM
[12]; Homo sapiens, OVCAR-3, 48 h
  GI50: 0.202 µM
[13]; Homo sapiens, OVCAR-8, 48 h
  GI50: 0.216 µM
[14]; Homo sapiens, SK-OV-3, 48 h
  GI50: 2.12 µM
[15]; Homo sapiens, 786-0, 48 h
  GI50: 0.78 µM
[16]; Homo sapiens, 48 h
  GI50: 0.402 µM
[17]; Homo sapiens, CAKI-1, 48 h
  GI50: 1.58 µM
[18]; Homo sapiens, RXF 393, 48 h
  GI50: 0.179 µM
[19]; Homo sapiens, UO-31, 48 h
  GI50: 1.55 µM
[20]; Homo sapiens
  GI50: 1.01 µM
[21]; Homo sapiens, DU-145, 48 h
  GI50: 0.368 µM
[22]; Homo sapiens, MDA-MB-231, 48 h
  GI50: 0.88 µM
[23]; Homo sapiens, Hs-578T, 48 h
  GI50: 1.85 µM
[24]; Homo sapiens, T47D, 48 h
  GI50: 1.82 µM

## CCOP(=O)(OCC)C(NC(=O)[C@H](Cc1ccc(-c2ccccc2)cc1)NC(=O)c1ccc(OCCC[Si](C)(C)C)cc1)P(=O)(OCC)OCC [GH1505, N^α-{4-[3-(trimethylsilyl)propoxy]-benzoyl}-N-[bis(dietoxyphosphoryl)methyl]-(4-phenyl-L-phenylalaninamide)]
[1]; Leukemia, MOLT-4, 48 h drug incubation, read-out: GI50
  GI50: 2.86 µM
[2]; average over Leukemia panel
  GI50: 2.8 µM
[3]; Non-Small Cell Lung Cancer, NCI-H522, 48 h drug incubation, read-out: GI50
  GI50: 2.02 µM
[4]; average over Non-Small Cell Lung Cancer panel
  GI50: 2.62 µM
[5]; Colon Cancer, COLO 205, 48 h drug incubation, read-out: GI50
  GI50: 1.84 µM
[6]; Colon Cancer, KM12, 48 h drug incubation, read-out: GI50
  GI50: 2.61 µM
[7]; CNS Cancer, U-251, 48 h drug incubation, read-out: GI50
  GI50: 2.09 µM
[8]; Melanoma, M14, 48 h drug incubation, read-out: GI50
  GI50: 2.1 µM
[9]; Melanoma, SK-MEL-2, 48 h drug incubation, read-out: GI50
  GI50: 2.11 µM
[10]; Melanoma, UACC-62, 48 h drug incubation, read-out: GI50
  GI50: 1.62 µM
[11]; Ovarian Cancer, IGROV1, 48 h drug incubation, read-out: GI50
  GI50: 3.22 µM
[12]; Ovarian Cancer, OVCAR-3, 48 h drug incubation, read-out: GI50
  GI50: 1.87 µM
[13]; Ovarian Cancer, OVCAR-8, 48 h drug incubation, read-out: GI50
  GI50: 2.96 µM
[14]; Ovarian Cancer, SK-OV-3, 48 h drug incubation, read-out: GI50
  GI50: 2.59 µM
[15]; Renal Cancer, 786-0, 48 h drug incubation, read-out: GI50
  GI50: 2.76 µM
[16]; Renal Cancer, 48 h drug incubation, read-out: GI50
  GI50: 2.27 µM
[17]; Renal Cancer, CAKI-1, 48 h drug incubation, read-out: GI50
  GI50: 2.9 µM
[18]; Renal Cancer, RXF 393, 48 h drug incubation, read-out: GI50
  GI50: 1.87 µM
[19]; Renal Cancer, UO-31, 48 h drug incubation, read-out: GI50
  GI50: 2.77 µM
[20]; average over Renal Cancer panel
  GI50: 2.55 µM
[21]; Prostate Cancer, DU145, 48 h drug incubation, read-out: GI50
  GI50: 1.93 µM
[22]; Breast Cancer, MDA-MB-231/ATCC, 48 h drug incubation, read-out: GI50
  GI50: 1.62 µM
[23]; Breast Cancer, HS 578T, 48 h drug incubation, read-out: GI50
  GI50: 2.61 µM
[24]; Breast Cancer, T-47D, 48 h drug incubation, read-out: GI50
  GI50: 3.1 µM

## CC1(C)CC(NC(=O)[C@H](Cc2ccc(OCc3c(Cl)cccc3Cl)cc2)NC(=O)c2ccc(OCCC[Si](C)(C)C)cc2)CC(C)(C)N1 [GH1501, N^α-{4-[3-(trimethylsilyl)propoxy]-benzoyl}-N-(2,2,6,6-tetramethylpiperidin-4-yl)-[O-(2,6-dichlorobenzyl)-L-tyrosinamide]]
[1]; Homo sapiens, MOLT-4, 48 h
  GI50: 0.353 µM
[2]; Homo sapiens
  GI50: 0.802 µM
[3]; Homo sapiens, NCI-H522, 48 h
  GI50: 1.82 µM
[4]; Homo sapiens
  GI50: 1.33 µM
[5]; Homo sapiens, COLO 205, 48 h
  GI50: 0.216 µM
[6]; Homo sapiens, KM12, 48 h
  GI50: 0.363 µM
[7]; Homo sapiens, U-251, 48 h
  GI50: 0.23 µM
[8]; Homo sapiens, M14, 48 h
  GI50: 0.341 µM
[9]; Homo sapiens, SK-MEL-2, 48 h
  GI50: 1.77 µM
[10]; Homo sapiens, UACC-62, 48 h
  GI50: 1.49 µM
[11]; Homo sapiens, IGROV-1, 48 h
  GI50: 1.2 µM
[12]; Homo sapiens, OVCAR-3, 48 h
  GI50: 1.25 µM
[13]; Homo sapiens, OVCAR-8, 48 h
  GI50: 0.268 µM
[14]; Homo sapiens, SK-OV-3, 48 h
  GI50: 2.08 µM
[15]; Homo sapiens, 786-0, 48 h
  GI50: 0.369 µM
[16]; Homo sapiens, 48 h
  GI50: 1.32 µM
[17]; Homo sapiens, CAKI-1, 48 h
  GI50: 1.36 µM
[18]; Homo sapiens, RXF 393, 48 h
  GI50: 1.51 µM
[19]; Homo sapiens, UO-31, 48 h
  GI50: 1.52 µM
[20]; Homo sapiens
  GI50: 1.28 µM
[21]; Homo sapiens, DU-145, 48 h
  GI50: 0.347 µM
[22]; Homo sapiens, MDA-MB-231, 48 h
  GI50: 0.881 µM
[23]; Homo sapiens, Hs-578T, 48 h
  GI50: 1.92 µM
[24]; Homo sapiens, T47D, 48 h
  GI50: 1.9 µM
